How the values were obtained:
female NSG mice = assay: Safety and tolerability in NSG mice; format: in vivo
THP-1 cells = assay: ROS production; format: cell-based; details: approximately 2 hours post-treatment
MOLM-14 cells [1] = assay: ROS production; format: cell-based; details: approximately 2 hours post-treatment
MOLM-14 cells [2] = assay: Double strand DNA breaks, γ-H2Ax immunofluorescence; format: cell-based; details: 24 hours exposure, 200 nM, 1.0 and 2.0 µM

O=C1C(C2=C(N3CC3)C(=O)c3ccccc3C2=O)=C(N2CC2)C(=O)c2ccccc21 [Compound 3, 3,3'-Di(aziridin-1-yl)-[2,2'-binaphthalene]-1,1',4,4'-tetraone]
tolerability (female NSG mice; 5, 10 and 15 mg/kg IP for 5 consecutive days, one week observation): tolerated the compound well | mean body weight loss (female NSG mice; mouse, in vivo, ip): ≤ 10% | ROS production (RFU) (THP-1 cells): dose-dependent increase in ROS production | ROS production (RFU) (MOLM-14 cells [1]): dose-dependent increase in ROS production | γ-H2Ax phosphorylation (double strand DNA breaks) (MOLM-14 cells [2]): substantial γ-H2Ax phosphorylation
